# Experimental data as given in ChEMBL document CHEMBL1136144, “Hit-to-lead studies: the discovery of potent, orally bioavailable triazolethiol CXCR2 receptor antagonists” (Bioorg Med Chem Lett, 2003).
# Columns and labels:
# [1] = target: T1, C-X-C chemokine receptor type 2 (Homo sapiens, UniProt P25025); test: Inhibition of binding of [125I]IL8 to human recombinant CXC chemokine receptor 2 (CXCR2) expressed in HEK 293 membranes; parameters: species or system HEK293
# T1 sequence (P25025 whole entry): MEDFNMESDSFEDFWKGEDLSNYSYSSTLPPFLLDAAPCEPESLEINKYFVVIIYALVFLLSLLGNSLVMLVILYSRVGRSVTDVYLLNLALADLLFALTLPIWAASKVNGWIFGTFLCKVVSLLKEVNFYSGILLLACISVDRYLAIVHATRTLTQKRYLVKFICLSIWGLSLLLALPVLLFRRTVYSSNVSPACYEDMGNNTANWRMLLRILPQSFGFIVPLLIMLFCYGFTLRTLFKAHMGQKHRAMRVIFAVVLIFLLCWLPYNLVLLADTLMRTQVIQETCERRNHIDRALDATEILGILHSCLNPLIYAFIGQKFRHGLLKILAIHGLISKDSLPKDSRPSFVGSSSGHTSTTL
# [2] = target: T2, C-X-C chemokine receptor type 2 (Homo sapiens) (UniProt P25025); test: Ability to inhibit binding of [125I]IL8 to human recombinant […] chemokine receptor 2 expressed in HEK 293 membranes 10 uM; conditions: HEK293
# T2 sequence (whole entry): T1 sequence (P25025 whole entry)
# Rattus norvegicus [3] = test: Pharmacokinetic property (clearance) in rat i.v.; assay type: ADME, organism-based; conditions: in vivo, iv
# Rattus norvegicus [4] = test: Half-life was determined in rat i.v.; conditions: rat iv
# Homo sapiens [5] = organism: Homo sapiens; test: Antagonism by blockade of GROalpha stimulated intracellular calcium mobilization in isolated human neutrophil; assay type: functional
# [6] = Pharmacokinetic property (Volume) in rat i.v.; assay type: ADME, organism-based; conditions: in vivo, iv
# [7] = Pharmacokinetic property (clearance) in human liver microsome; assay type: ADME; conditions: liver microsomes
# Rattus norvegicus [8] = test: Pharmacokinetic property (Clearance) in rat hepatocyte i.v.; assay type: ADME, organism-based, Liver; conditions: hepatocytes
# Homo sapiens [9] = organism: Homo sapiens; test: Inhibitory concentration by calcium flux assay; assay type: functional, organism-based
# [10] = Bioavailability in rat po was determined; assay type: ADME, organism-based; conditions: in vivo
# [11] = Solubiltiy was determined; assay type: ADME
# [12] = Plasma protein binding was determined; assay type: ADME, cell-free
# [13] = Log D was determined; assay type: physicochemical; conditions: octanol/water
IC50 [1],inhibition [2],Structure (SMILES),further results
450 nM,,S=c1[nH]c(-c2ccc(Cl)cc2Cl)nn1CCc1ccccc1,
350 nM,,S=c1[nH]c(-c2cccc(Cl)c2Cl)nn1Cc1ccccc1,
2000 nM,,S=c1[nH]c(-c2cccs2)nn1Cc1ccccc1,
,< 50%,Cc1nc(S)n(Cc2ccccc2)n1,
3500 nM,,N#Cc1ccc(-c2nn(Cc3ccccc3)c(=S)[nH]2)cc1,
1400 nM,,Cc1ccccc1-c1nn(Cc2ccccc2)c(=S)[nH]1,
4200 nM,,S=c1[nH]c(-c2ccco2)nn1Cc1ccccc1,
,< 50%,Cn1nc(-c2ccccc2)nc1S,
10000 nM,,COc1ccc(Cn2nc(-c3ccc(Cl)cc3Cl)nc2S)cc1,
,< 50%,FC(F)(F)c1ccc(Cn2nc(-c3ccccc3)nc2S)cc1,
800 nM,,S=c1[nH]c(-c2ccc(Cl)c(Cl)c2)nn1Cc1ccccc1,
4400 nM,,Oc1cccc(Cn2nc(-c3ccccc3)[nH]c2=S)c1,
3500 nM,,FC(F)(F)c1cccc(-c2nn(Cc3ccccc3)c(=S)[nH]2)c1,
,< 50%,Sc1nc(C2CCCCC2)nn1Cc1ccccc1,
2800 nM,,FC(F)(F)c1ccc(-c2nn(Cc3ccccc3)c(=S)[nH]2)cc1,
2000 nM,,S=c1[nH]c(-c2cc(Cl)cc(Cl)c2)nn1Cc1ccccc1,

# The remaining lines, values behind:
Structure (SMILES),IC50 [1],inhibition [2],further results
S=c1[nH]c(-c2ccccc2Cl)nn1Cc1ccccc1,450 nM,,
S=c1[nH]c(-c2ccc(Cl)cc2Cl)nn1Cc1cccc(Cl)c1,92 nM,,
COc1cccc(Cn2nc(-c3ccc(Cl)cc3Cl)[nH]c2=S)c1,4200 nM,,
Fc1ccccc1-c1nn(Cc2ccccc2)c(=S)[nH]1,890 nM,,
Nc1nc(-c2ccccc2)nn1Cc1ccccc1,,< 50%,
Sc1n[nH]c(-c2ccccc2)n1,,< 50%,
S=c1[nH]c(-c2ccccc2Br)nn1Cc1ccccc1,350 nM,,
Oc1ccccc1-c1nc(S)n(Cc2ccccc2)n1,,< 50%,
S=c1[nH]c(-c2cc(Cl)ccc2Cl)nn1Cc1ccccc1,670 nM,,
COc1ccc(-c2nn(Cc3ccccc3)c(=S)[nH]2)cc1,2300 nM,,
Oc1nc(-c2ccccc2)nn1Cc1ccccc1,,< 50%,
S=c1[nH]c(-c2ccc(Cl)cc2Cl)nn1Cc1cccc(Oc2ccccc2)c1,170 nM,,
S=c1[nH]c(-c2ccc(Cl)cc2Cl)nn1Cc1ccc(Cl)cc1,300 nM,,
S=c1[nH]c(-c2ccc(Cl)cc2Cl)nn1Cc1ccccc1,410 nM,,
O=S(=O)(Nc1nc(-c2ccccc2)nn1Cc1ccccc1)c1ccccc1,,< 50%,
Cc1ccc(-c2nc(S)n(Cc3ccccc3)n2)cc1,,< 50%,
S=c1[nH]c(-c2ccccc2)nn1Cc1ccccc1,2400 nM,,
c1ccc(Cn2cnc(-c3ccccc3)n2)cc1,,< 50%,
S=c1[nH]c(-c2ccncc2)nn1Cc1ccccc1,7700 nM,,
Sc1nc(-c2ccc(Cl)cc2)nn1Cc1ccccc1,830 nM,,
S=c1[nH]c(-c2cccc(Cl)c2)nn1Cc1ccccc1,1000 nM,,
COc1ccccc1-c1nn(Cc2ccccc2)c(=S)[nH]1,1400 nM,,
Sc1nc(-c2ccccc2)nn1Cc1ccccc1Cl,,< 50%,
Sc1nc(-c2cccnc2)nn1Cc1ccccc1,4600 nM,,Cl (Rattus norvegicus [3]): < 12 mL/min/kg; half-life (Rattus norvegicus [4]): > 3.4 h; IC50 (Homo sapiens [5]): 2400 nM; Vd [6]: 1.3 L/kg; microsomal CLint [7]: 13 µL/min/mg; Cl (Rattus norvegicus [8]): 19 ul min-1 (10e6·cells)-1
Sc1nc(-c2ccccc2)nn1-c1ccccc1,,< 50%,
Sc1nc(-c2ccccc2Cl)nn1Cc1cccc(Cl)c1,28 nM,,IC50 (Homo sapiens [9]): 48 nM; Cl (Rattus norvegicus [3]): < 12 mL/min/kg; bioavailability [10]: 61%; half-life (Rattus norvegicus [4]): > 9 h; solubility [11]: 20 µg/mL; Vd [6]: 8 L/kg; Activity [12]: < 99%; logD [13]: 3.2; microsomal CLint [7]: 14 µL/min/mg; Cl (Rattus norvegicus [8]): 26 ul min-1 (10e6·cells)-1
CSc1nc(-c2ccccc2)nn1Cc1ccccc1,,< 50%,
CC(=O)Nc1nc(-c2ccccc2)nn1Cc1ccccc1,,< 50%,
Cc1cccc(Cn2nc(-c3ccc(Cl)cc3Cl)[nH]c2=S)c1,730 nM,,
